The target of one assay is T1, Human HDAC4 (Homo sapiens, UniProt P56524).
T1 construct: amino acids 627-1085 with N-terminal GST tag; GST (N); host or cells: baculovirus expression system
The assay can be described thus: HDAC4 biochemical assay, class IIa-specific substrate. Particulars: read-out: HDAC Isoform IC50 (nM) 4. In short, it runs like this: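 Two-step fluorogenic read-out: deacetylated BOC-Lys(trifluoroacetyl)-AMC (50 μM) was digested by developer and measured at Ex/Em 360/460. Deacetylation by 0.004 ng/ul HDAC4 (aa 627-1085, N-terminal GST) ran 30 min at room temperature, pH 8.0 Tris buffer, 1 mg/mL BSA, 1% DMSO.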

For another assay, the target named is T2, Human HDAC9 (Homo sapiens, UniProt Q9UKV0).
T2 construct: amino acids 604-1066 with C-terminal His tag; His (C); host or cells: baculovirus expression system
The assay can be described thus: HDAC9 biochemical assay, class IIa-specific substrate. The following applies: read-out: HDAC Isoform IC50 (nM) 9. An outline of the steps:
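HDAC9 residues 604-1066 (C-terminal His tag, baculovirus-expressed) at 0.06 ng/ul with 50 μM class IIa substrate Boc-Lys(trifluoroacetyl)-AMC in Tris-HCl pH 8.0 buffer with BSA and 1% DMSO. 30 min at room temperature, then developer added; fluorescence read at 360/460 nm Ex/Em.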

The target in another assay is T3, Human HDAC1 (Homo sapiens, UniProt Q13547).
T3 construct: full length with C-terminal His-tag and C-terminal FLAG-tag; His (C); FLAG (C); host or cells: baculovirus expression system
The assay can be described thus: HDAC1 biochemical assay, AMC-labeled peptide substrate. Particulars: read-out: HDAC Isoform IC50 (nM) 1. An outline of the steps: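 Two-step fluorogenic read: HDAC1 deacetylates 50 μM acetyl-lysine AMC peptide RHKK(Ac)AMC for 1 h at 30° C (pH 8.0, 1% DMSO, with compound), then developer digests the product for fluorescence at Ex/Em 360/460. Enzyme is full-length human, His/FLAG-tagged, insect-cell expressed, at 0.3 ng/ul.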

The target of a further assay is T4, Human HDAC8 (Homo sapiens, UniProt Q9BY41).
T4 construct: full length with C-terminal His tag, MW=42.6 kDa; His (C); host or cells: baculovirus expression system
T4 sequence (Q9BY41 1-377): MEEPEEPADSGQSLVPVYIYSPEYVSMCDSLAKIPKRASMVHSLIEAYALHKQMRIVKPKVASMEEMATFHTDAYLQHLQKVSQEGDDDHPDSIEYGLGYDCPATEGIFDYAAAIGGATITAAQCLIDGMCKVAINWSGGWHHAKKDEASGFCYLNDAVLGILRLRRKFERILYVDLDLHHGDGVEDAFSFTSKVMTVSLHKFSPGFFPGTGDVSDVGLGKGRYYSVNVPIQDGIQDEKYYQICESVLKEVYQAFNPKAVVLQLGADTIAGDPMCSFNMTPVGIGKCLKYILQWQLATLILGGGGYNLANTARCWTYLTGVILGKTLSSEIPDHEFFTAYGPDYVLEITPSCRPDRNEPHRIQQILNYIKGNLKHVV
The assay can be described thus: HDAC8 biochemical assay, AMC-labeled peptide substrate. Particulars: read-out: HDAC Isoform IC50 (nM) 8. An outline of the steps:
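Two-step fluorogenic readout: compounds and enzyme deacetylate 100 µM RHK(Ac)K(Ac)AMC for 2 h at 30° C (pH8.0 Tris buffer, BSA, 1% DMSO final), then developer releases AMC, read at 360/460 Ex/Em. Enzyme: 1 ng/ul full-length His-tagged human HDAC8 from baculovirus.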

The target of the next assay is T5, Human HDAC11 (Homo sapiens, UniProt Q96DB2).
T5 construct: Human HDAC11 (full length); His (N); host or cells: baculovirus expression system
T5 sequence (Q96DB2 1-347): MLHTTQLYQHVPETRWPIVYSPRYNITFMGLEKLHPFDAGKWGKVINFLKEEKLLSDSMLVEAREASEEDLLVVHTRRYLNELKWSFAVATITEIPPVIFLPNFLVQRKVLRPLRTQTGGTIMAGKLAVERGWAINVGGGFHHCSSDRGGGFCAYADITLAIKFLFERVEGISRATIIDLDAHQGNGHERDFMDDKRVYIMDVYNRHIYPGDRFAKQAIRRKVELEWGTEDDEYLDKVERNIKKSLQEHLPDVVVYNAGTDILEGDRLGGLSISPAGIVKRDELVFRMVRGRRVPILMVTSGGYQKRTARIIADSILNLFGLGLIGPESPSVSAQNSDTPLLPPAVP
The assay can be described thus: HDAC11 biochemical assay, class IIa-specific substrate. The following applies: read-out: HDAC Isoform IC50 (nM) 11. An outline of the steps: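 Full-length N-His human HDAC11 from baculovirus, 5 ng/μl, incubated with 50 μM Boc-Lys(trifluoroacetyl)-AMC for 30 min at 30 °C. Buffer: 50 mM Tris-HCl pH 8.0, 137 mM NaCl, 2.7 mM KCl, 1 mM MgCl2, 1 mg/mL BSA, 1% DMSO. Developer releases AMC; fluorescence read at 360/460 nm.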

The target in assay [1] is T6, Complex of human HDAC3 and human NCOR2 (Homo sapiens, UniProt O15379).
T6 construct: full length with C-terminal His tag, MW=49.7 kDa; His (C); host or cells: baculovirus expression system (co-expressed)
The assay can be described thus: HDAC3 biochemical assay, AMC-labeled peptide substrate. The following applies: read-out: HDAC Isoform IC50 (nM) 3. An outline of the steps: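 Two-stage fluorogenic read: compounds incubated 1 h at 30° C with 50 μM RHKK(Ac)AMC and 0.1 ng/ul HDAC3–NCOR2(395-489) complex (Tris pH8.0, NaCl, KCl, MgCl2, BSA, 1% DMSO). Developer digestion of deacetylated product gives signal at Ex 360/Em 460.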

In patent US20210038607A1, “OXADIAZOLYLTHIOPHENE DERIVATIVES USEFUL AS HISTONE DEACETYLASE INHIBITORS” (Karus Therapeutics Limited, priority 2018, published 2021) one finds IC50 data, which are given here for seven compounds.

T2 sequence (Q9UKV0 604-1066 isoform Q9UKV0-5): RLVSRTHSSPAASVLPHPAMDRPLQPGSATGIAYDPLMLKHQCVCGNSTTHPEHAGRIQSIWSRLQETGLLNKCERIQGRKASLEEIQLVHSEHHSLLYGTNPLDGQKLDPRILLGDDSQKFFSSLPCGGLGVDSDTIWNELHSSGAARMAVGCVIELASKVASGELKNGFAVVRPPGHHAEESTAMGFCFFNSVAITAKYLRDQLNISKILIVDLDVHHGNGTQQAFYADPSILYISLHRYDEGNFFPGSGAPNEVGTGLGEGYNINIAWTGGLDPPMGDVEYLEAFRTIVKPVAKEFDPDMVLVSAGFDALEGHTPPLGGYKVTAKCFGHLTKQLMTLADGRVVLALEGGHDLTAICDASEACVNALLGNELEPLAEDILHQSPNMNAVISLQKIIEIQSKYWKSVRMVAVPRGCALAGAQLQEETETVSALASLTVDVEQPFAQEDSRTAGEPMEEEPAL
T3 sequence (Q13547 whole entry): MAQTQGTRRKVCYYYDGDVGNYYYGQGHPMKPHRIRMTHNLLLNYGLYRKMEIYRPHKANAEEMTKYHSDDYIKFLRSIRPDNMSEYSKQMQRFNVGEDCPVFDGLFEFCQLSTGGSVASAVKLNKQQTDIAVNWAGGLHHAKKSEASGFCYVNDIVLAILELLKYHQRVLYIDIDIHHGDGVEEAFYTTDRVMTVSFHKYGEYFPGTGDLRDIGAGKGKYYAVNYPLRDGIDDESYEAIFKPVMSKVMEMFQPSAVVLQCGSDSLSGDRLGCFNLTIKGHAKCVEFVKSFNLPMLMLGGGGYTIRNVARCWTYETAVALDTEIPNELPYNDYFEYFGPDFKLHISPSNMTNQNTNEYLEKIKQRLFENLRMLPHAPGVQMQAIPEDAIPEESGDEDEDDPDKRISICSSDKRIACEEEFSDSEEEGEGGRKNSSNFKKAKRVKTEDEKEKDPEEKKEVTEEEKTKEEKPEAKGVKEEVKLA
T1 sequence (P56524 627-1084 limits assumed): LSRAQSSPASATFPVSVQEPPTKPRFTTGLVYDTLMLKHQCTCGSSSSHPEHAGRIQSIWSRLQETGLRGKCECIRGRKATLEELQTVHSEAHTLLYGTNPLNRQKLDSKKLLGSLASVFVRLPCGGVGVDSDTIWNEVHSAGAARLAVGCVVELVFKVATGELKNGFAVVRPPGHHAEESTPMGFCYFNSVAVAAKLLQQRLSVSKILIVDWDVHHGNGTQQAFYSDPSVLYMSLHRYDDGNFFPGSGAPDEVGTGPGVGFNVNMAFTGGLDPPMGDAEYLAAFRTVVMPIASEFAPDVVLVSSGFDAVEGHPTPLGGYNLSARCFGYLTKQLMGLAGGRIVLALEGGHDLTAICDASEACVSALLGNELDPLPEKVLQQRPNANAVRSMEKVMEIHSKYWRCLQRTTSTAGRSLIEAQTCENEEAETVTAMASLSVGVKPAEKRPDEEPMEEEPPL
T6 sequence (O15379 whole entry): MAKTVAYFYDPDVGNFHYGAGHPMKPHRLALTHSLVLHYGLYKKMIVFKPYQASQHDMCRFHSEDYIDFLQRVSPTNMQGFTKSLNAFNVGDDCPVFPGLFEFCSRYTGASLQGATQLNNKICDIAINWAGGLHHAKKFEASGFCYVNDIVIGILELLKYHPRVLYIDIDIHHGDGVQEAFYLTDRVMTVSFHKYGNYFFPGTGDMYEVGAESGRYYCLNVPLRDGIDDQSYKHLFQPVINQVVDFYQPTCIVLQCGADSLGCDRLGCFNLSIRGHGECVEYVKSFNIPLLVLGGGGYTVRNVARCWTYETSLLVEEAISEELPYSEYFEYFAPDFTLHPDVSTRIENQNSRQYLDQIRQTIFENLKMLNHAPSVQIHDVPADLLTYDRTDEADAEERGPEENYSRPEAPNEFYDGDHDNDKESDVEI
T6 sequence (Q9Y618 395-489 partner limits assumed): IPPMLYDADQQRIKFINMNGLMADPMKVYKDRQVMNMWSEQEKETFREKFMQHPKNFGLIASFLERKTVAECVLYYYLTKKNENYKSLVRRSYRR

In general, IC50 refers to the concentration that inhibits the measured activity by half. With `CC(C)(O)c1cnnc(N(Cc2ccc(-c3noc(C(F)(F)F)n3)s2)c2cnccn2)c1` [Example GS, 2-{6-[(Pyrazin-2-yl)({5-[5-(trifluoromethyl)-1,2,4-oxadiazol-3-yl]thiophen-2-yl}methyl)amino]pyridazin-4-yl}propan-2-ol], the IC50 is ≤ 1000 nM at Human HDAC4; ≤ 10000 nM at Human HDAC9; ≤ 10000 nM on Human HDAC1; ≤ 10000 nM at Human HDAC8; > 10000 nM on Human HDAC11; > 10000 nM in assay [1].
For `CC1(c2cnnc(N(Cc3ccc(-c4noc(C(F)(F)F)n4)s3)c3cnccn3)c2)COC1` [Example GT, 5-(3-Methyloxetan-3-yl)-N-(pyrazin-2-yl)-N-({5-[5-(trifluoromethyl)-1,2,4-oxadiazol-3-yl]thiophen-2-yl}methyl)pyridazin-3-amine], the IC50 is ≤ 10000 nM at Human HDAC4; ≤ 10000 nM at Human HDAC9; > 10000 nM on Human HDAC1; ≤ 10000 nM on Human HDAC8; > 10000 nM at Human HDAC11; > 10000 nM in assay [1].
As for `CC(F)(F)c1cnnc(N(Cc2ccc(-c3noc(C(F)(F)F)n3)s2)c2cnccn2)c1` [Example GU, 5-(1,1-Difluoroethyl)-N-(pyrazin-2-yl)-N-({5-[5-(trifluoromethyl)-1,2,4-oxadiazol-3-yl]thiophen-2-yl}methyl)pyridazin-3-amine], the IC50 at Human HDAC4 is ≤ 10000 nM; on Human HDAC9, ≤ 10000 nM; on Human HDAC1 it was > 10000 nM; on Human HDAC8, ≤ 10000 nM; at Human HDAC11 it was > 10000 nM; in assay [1], > 10000 nM.
For the compound `FC(F)c1cnnc(N(Cc2ccc(-c3noc(C(F)(F)F)n3)s2)c2cnccn2)c1` [Example GV, 5-(Difluoromethyl)-N-(pyrazin-2-yl)-N-({5-[5-(trifluoromethyl)-1,2,4-oxadiazol-3-yl]thiophen-2-yl}methyl)pyridazin-3-amine], the IC50 is ≤ 10000 nM at Human HDAC4; ≤ 10000 nM on Human HDAC9; > 10000 nM at Human HDAC1; ≤ 10000 nM at Human HDAC8; > 10000 nM at Human HDAC11; > 10000 nM in assay [1].
For the compound `OC1(c2cnnc(N(Cc3ccc(-c4noc(C(F)(F)F)n4)s3)c3cnccn3)c2)COC1` [Example GW, 3-{6-[(Pyrazin-2-yl)({5-[5-(trifluoromethyl)-1,2,4-oxadiazol-3-yl]thiophen-2-yl}methyl)amino]pyridazin-4-yl}oxetan-3-ol], the IC50 at Human HDAC4 is ≤ 10000 nM; at Human HDAC9, ≤ 10000 nM; at Human HDAC1, > 10000 nM; at Human HDAC8 it was ≤ 10000 nM; on Human HDAC11, > 10000 nM; in assay [1], > 10000 nM.
As to `C[C@H]1CCCN1C(=O)c1cnnc(N(Cc2ccc(-c3noc(C(F)(F)F)n3)s2)c2cnccn2)c1` [Example GY, 5-[(2S)-2-Methylpyrrolidine-1-carbonyl]-N-(pyrazin-2-yl)-N-({5-[5-(trifluoromethyl)-1,2,4-oxadiazol-3-yl]thiophen-2-yl}methyl)pyridazin-3-amine], the IC50 at Human HDAC4 was ≤ 10000 nM; at Human HDAC9, ≤ 10000 nM; at Human HDAC1, > 10000 nM; on Human HDAC8, ≤ 10000 nM; at Human HDAC11 it was > 10000 nM; in assay [1] it was > 10000 nM.
For the compound `FC(F)(F)c1nc(-c2ccc(CN(c3ccccn3)c3ccccn3)s2)no1` [Example U, N-(Pyridin-2-yl)-N-({5-[5-(trifluoromethyl)-1,2,4-oxadiazol-3-yl]thiophen-2-yl}methyl)pyridin-2-amine], the IC50 at Human HDAC4 is ≤ 10000 nM; at Human HDAC9, ≤ 10000 nM; at Human HDAC1 it was > 10000 nM; on Human HDAC8 it was > 10000 nM; on Human HDAC11 it was > 10000 nM; in assay [1] it was > 10000 nM.
